Assay results from PMC9658586, “1,4-Naphthoquinone Motif in the Synthesis of New Thiopyrano[2,3-d]thiazoles as Potential Biologically Active Compounds” (Molecules, 2022).
pIC50: −log10 of the molar value. Where two headings read alike, the source gives them in different places.

Key:
[1] = system: Human colon carcinoma HCT116 cells (HCT116wt); assay: MTT cell viability assay, HCT116wt; format: cell-based; conditions: Homo sapiens, HCT-116, 72 h
Experimental: (§1) The MTT cell viability assay was performed 72 h after cells treatment with various concentrations of studied compounds and doxorubicin, a reference drug. […] It is known that ABCB1 (P-glycoprotein), MRP1/ABCC1 (multidrug resistance protein 1), and BCRP/BCG2 (breast cancer resistance protein) have been reported to be key players in resistance to chemotherapy. […] The p53 has diverse mutations in almost all human tumors, stimulating their hyper-proliferation, invasion/metastasis, and thus, influencing the potency of various chemotherapeutics (i.e., platins and anti-metabolites).
(§2) Human colon carcinoma HCT116 cells, human breast adenocarcinoma cells of MCF-7 line, human T-leukemia Jurkat cells, human chronic myelogenous leukemia K562 cells, and human keratinocytes of HaCaT line were from the Cell Collection of R.E. Kavetsky Institute of Experimental Pathology, Oncology and Radiobiology (Kyiv, Ukraine). Murine macrophages of J774.2 line were a generous gift from Professor Sir John Vane (William Harvey Research Institute, London, UK) via Professor Janusz Marcinkiewicz (Jagiellonian University Medical College, Krakow, Poland). Human colon carcinoma HCT116 p53-/- cells with knockdown of P53 gene, as well as human epidermoid cervix carcinoma KB3-1 cells and its ABCB1-overexpressing subline KBC-1, were kindly provided by Professor W. Berger (Institute of Cancer Research, Medical University of Vienna, Austria). […] Human leukemia monocytic THP-1 cells were kindly provided by Professor M. Herrmann (Department of Internal Medicine, Institute for Clinical Immunology and Rheumatology, University of Erlangen-Nuremberg, Germany). Cells were cultured in DMEM or RPMI-1640 medium supplemented with 10% fetal bovine serum (all were purchased from Biowest, Nuaille, France) at 37 °C in a humidified atmosphere containing 5% CO2.
(§3) MTT assay was used to examine the viability of tumor and pseudo-normal cells after their treatment with studied thiopyrano[2,3-d]thiazole derivatives and doxorubicin (Actavis S.R.L., Bucharest, Romania). Cells were seeded in 96-well plates at a density of 3–5 × 103. After 24 h, cells were treated with compound […], 1,4-NQ (0.1–100 µM), and doxorubicin (0.1–100 µM). After incubation for 72 h, MTT reagent (Sigma-Aldrich, St. Louis, MO, USA) was added to each well, according to the Sigma-Aldrich protocol. An absorbance Reader BioTek ELx800 (BioTek Instruments, Inc., Winooski, VT, USA) was used to measure the reaction product.

[2] = system: Murine macrophages of J774.2 line; assay: MTT cell viability assay, J774.2; format: cell-based; conditions: pseudo-normal murine macrophages
Experimental: as §1, §2, §3

[3] = system: human epidermoid cervix carcinoma KB3-1 cells; assay: MTT cell viability assay, KB3-1; format: cell-based; conditions: Homo sapiens, KB 3-1, 72 h
Experimental: as §1, §2, §3

salmon sperm DNA = assay: DNA/methyl green colorimetric (replacement) assay; format: binding
Experimental: In addition, we used DNA/methyl green colorimetric assay to study the possible interaction of compound 3.6 in DNA. […] This assay was used to measure the displacement of methyl green from DNA by compounds with the ability to intercalate DNA [54].
The capacity of the tested compounds to intercalate into salmon sperm DNA was determined using the methyl green assay. Briefly, salmon sperm DNA (10 mg/mL) was incubated for 1 h at 37 °C with 15 µL of methyl green solution (1 mg/mL in H2O). The compounds were added at concentrations 1 and 10 µM/mL and incubated at 37 °C in the dark for 2 h. Reduction of the absorbance of methyl green at 642 nm induced by the test compounds was measured with a multiplate reader, Plate Reader BioTek Lx80 ( BioTek Instruments, Inc., Winooski, VT, USA). Doxorubicin, a well-known intercalating agent, was used as a positive control.

MDA-MB-435/Melanoma = assay: NCI single-dose screen, MDA-MB-435; format: cell-based, human; conditions: 10 μM, 48 h
Experimental: (§4) Considering the results of previous studies of fused thiazolidinones and their analogs, a series of thiopyrano[2,3-d]thiazoles with naphthoquinone fragments in the structure were studied for their anticancer activity. Thus, synthesized thiopyranothiazole derivatives 3.5 and 3.6 were selected by the National Cancer Institute (NCI), U.S., for their anticancer activity at 10 μM concentration toward a panel of sixty cancer cell lines representing nine different types (leukemia, melanoma, lung, colon, CNS, ovarian, renal, prostate, and breast cancers) (Figures S13–S14). Selection for screening based on new derivatives’ ability to add diversity to the NCI small molecules collection and anticancer assays were performed according to the NCI guidelines and protocols previously described. The compounds were added at the mentioned concentration, and the cell cultures were incubated for 48 h. The results for each compound were reported as the growth percent (GP%) of treated cells compared with untreated control cells.
Anticancer in vitro assay was performed on the human tumor cell lines panel derived from nine neoplastic diseases by the protocol of the Drug Evaluation Branch, National Cancer Institute, Bethesda, MD, USA [44, 45, 46]. […] GP% was spectrophotometrically evaluated vs. controls not treated with test agents.

[4] = system: Human colon carcinoma HCT116 p53-/- cells; assay: MTT cell viability assay, HCT116 p53-/-; format: cell-based; conditions: for pIC50: Homo sapiens, read-out: IC50, HCT116 p53-/-
Experimental: as §1, §2, §3

[5] = system: panel of sixty cancer cell lines; assay: NCI single-dose (10 μM) anticancer screen, sulforhodamine B, 60-cell-line panel; format: cell-based, human; conditions: 48 h; for Mean Growth, %: growth percent vs untreated control, 60 cell lines; for Range of Growth, %: range over 60 cell lines
Experimental: as §4
Anticancer in vitro assay was performed on the human tumor cell lines panel derived from nine neoplastic diseases by the protocol of the Drug Evaluation Branch, National Cancer Institute, Bethesda, MD, USA [44, 45, 46]. Tested compounds were added to the culture at a single concentration (10^−5 M), and the cultures were incubated for 48 h. Endpoint determinations were made with a protein binding dye, sulforhodamine B. Results for each tested compound were reported as the GP% of the treated cells compared to untreated control cells. GP% was spectrophotometrically evaluated vs. controls not treated with test agents.

SMILES	pIC50 [1]	pIC50 ([2]; Mus musculus, J774.2, 72 h)	pIC50 [3]	percentage of methyl green replacement (salmon sperm DNA; dependent on concentration (1 and 10 µM))	Most Sensitive Cell Line Growth, % (MDA-MB-435/Melanoma) (MDA-MB-435/Melanoma)	cytotoxic action on p53-deficient colon carcinoma cells relative to HCT116wt ([4]; HCT116 p53-/- vs HCT116wt)	pIC50 ([4]; HCT-116, MTT, 72 h)	Mean Growth, % [5]	Range of Growth, % [5]	pIC50 ([2]; 72 h, listed as Dox)	methyl green replacement (salmon sperm DNA; 10 µM, compared with compound 3.6)	pIC50 ([4]; HCT-116, 72 h)
O=C1C2=C(C(=O)c3ccccc31)C(CCc1ccccc1)c1sc(=O)[nH]c1S2 (stereo not drawn) [Compound 3.6, 11-Phenethyl-3,11-dihydro-2H-benzo[6,7]thiochromeno[2,3-d]thiazole-2,5,10-trione]	5.20	5.02	4.56	35.00 to 39.64%	52.87%	two times weaker	4.91	90.58%	45.25 to 130.11%	–	–	–
COc1cccc2c1C(=O)c1c(O)c3c(c(O)c1C2=O)C[C@@](O)(C(=O)CO)C[C@@H]3O[C@H]1C[C@H](N)[C@H](O)[C@H](C)O1 [Doxorubicin, doxorubicin, reference compound]	7.15	6.00 to 6.10	6.14	–	−82.60%	–	–	−20.30%	−86.40 to 72.90%	6.01	two times more effective	6.24
